From ChEMBL document CHEMBL5352398 (Eur J Med Chem, 2022)
The source made the active and inactive calls. No cut-off for these calls is given here.

Tests used:
Mus musculus = experiment: Anti-hyperuricemic activity against potassium oxonate induced hyperuricemia in Kunming mouse model assessed as decrease in serum urate level at 2 mg/kg, po and measured after 3 hrs; assay type: functional, organism-based
[1] = target: T1, Solute carrier family 22 member 12 (Homo sapiens, UniProt Q96S37); experiment: Inhibition of human URAT1 stably overexpressing in human HEK293 cells assessed as inhibition of 14C-uric acid uptake preincubated for 30 mins followed by substrate addition and measured after 15 mins using 14C-uric acid as substrate by liquid scintillation counting analysis; assay type: cell-based
T1 sequence (Q96S37 whole entry): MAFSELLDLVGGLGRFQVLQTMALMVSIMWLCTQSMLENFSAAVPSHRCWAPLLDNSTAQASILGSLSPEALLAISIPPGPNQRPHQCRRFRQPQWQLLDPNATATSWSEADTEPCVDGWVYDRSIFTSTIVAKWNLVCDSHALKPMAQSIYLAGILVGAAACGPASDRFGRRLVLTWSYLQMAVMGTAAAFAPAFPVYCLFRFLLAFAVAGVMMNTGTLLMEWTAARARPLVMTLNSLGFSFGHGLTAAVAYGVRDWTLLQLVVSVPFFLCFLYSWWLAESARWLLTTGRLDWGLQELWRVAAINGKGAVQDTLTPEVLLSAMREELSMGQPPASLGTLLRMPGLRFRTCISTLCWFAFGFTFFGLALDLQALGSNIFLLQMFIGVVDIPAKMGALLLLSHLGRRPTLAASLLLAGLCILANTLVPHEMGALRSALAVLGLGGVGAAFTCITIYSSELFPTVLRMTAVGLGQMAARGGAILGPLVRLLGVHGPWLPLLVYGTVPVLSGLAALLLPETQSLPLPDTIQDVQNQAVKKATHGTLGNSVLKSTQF

[2] = Subacute toxicity in Kunming mouse assessed as animal death at 50 mg/kg,po for 14 days; assay type: organism-based; conditions: in vivo, 336 h, time 14 day
[3] = Oral bioavailability in Sprague-Dawley rat at 5 mg/kg and measured upto 24 hrs by LCMS analysis; assay type: ADME, organism-based; conditions: in vivo
[4] = Cmax in Sprague-Dawley rat at 5 mg/kg, po and measured upto 24 hrs by LC-MS/MS analysis; assay type: ADME, organism-based; design: dose 5 mg/kg, time < 24 hrs, route po; conditions: in vivo
[5] = Tmax in Sprague-Dawley rat at 5 mg/kg, iv and measured upto 24 hrs by LC-MS/MS analysis; assay type: ADME, organism-based; conditions: in vivo
[6] = Hepatotoxicity in Kunming mouse assessed as increase in AST level in serum at 50 mg/kg,po for 14 days in presence of BSO; assay type: toxicity, organism-based; conditions: in vivo, 336 h, time 14 day
[7] = AUC(0 to infinity) in Sprague-Dawley rat at 5 mg/kg, iv and measured upto 24 hrs by LC-MS/MS analysis; assay type: ADME, organism-based; design: dose 5 mg/kg, time < 24 hrs, route iv; conditions: in vivo
[8] = Hepatotoxicity in Kunming mouse assessed as increase in ALT level in serum at 50 mg/kg,po for 14 days in presence of BSO; assay type: toxicity, organism-based; conditions: in vivo, 336 h, time 14 day
[9] = target: T2, Solute carrier family 22 member 6 (Homo sapiens, UniProt Q4U2R8); experiment: Inhibition of OAT1 (unknown origin) transfected in HEK293 cells assessed as inhibition of 6-CFL uptake preincubated for 30 mins followed by 6-CFL addition and measured for 15 mins by fluorescence based microplate reader analysis; assay type: cell-based
T2 sequence (Q4U2R8 whole entry): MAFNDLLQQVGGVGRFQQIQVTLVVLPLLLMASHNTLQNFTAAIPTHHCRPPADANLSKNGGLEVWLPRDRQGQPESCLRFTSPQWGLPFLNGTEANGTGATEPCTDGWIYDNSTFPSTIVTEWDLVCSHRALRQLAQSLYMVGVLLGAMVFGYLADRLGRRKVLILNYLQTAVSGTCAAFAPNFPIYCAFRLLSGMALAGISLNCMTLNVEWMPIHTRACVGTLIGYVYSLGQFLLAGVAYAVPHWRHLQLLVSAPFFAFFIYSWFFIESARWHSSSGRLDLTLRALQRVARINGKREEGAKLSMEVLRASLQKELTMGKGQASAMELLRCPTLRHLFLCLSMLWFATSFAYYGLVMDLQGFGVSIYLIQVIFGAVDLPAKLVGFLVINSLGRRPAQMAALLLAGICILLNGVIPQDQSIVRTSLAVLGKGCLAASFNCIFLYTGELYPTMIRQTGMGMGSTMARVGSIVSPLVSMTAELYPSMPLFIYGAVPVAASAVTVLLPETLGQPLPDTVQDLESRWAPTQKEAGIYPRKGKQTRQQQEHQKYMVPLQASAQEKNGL

[10] = Toxicity in Kunming mouse assessed as cell arrangements in liver at 50 mg/kg, po administered and measured after 14 days by HE staining; assay type: organism-based; conditions: in vivo, 336 h, time 14 day
[11] = Half life in Sprague-Dawley rat at 5 mg/kg, po and measured upto 24 hrs by LC-MS/MS analysis; assay type: ADME, organism-based; conditions: in vivo
HepG2 = experiment: Cytotoxicity against human HepG2 cells assessed as reduction in cell viability upto 400 uM incubated for 24 hrs by MTT assay; assay type: toxicity, cell-based; conditions: hepg2, 24 h
[12] = target: T3, Solute carrier family 2, facilitated glucose transporter member 9 (Mus musculus, UniProt Q3T9X0); experiment: Inhibition of mouse GLUT9 transfected in human HEK293 cells assessed as inhibition of uric acid induced current by cell patch-clamp assay; assay type: cell-based
T3 sequence (Q3T9X0 whole entry): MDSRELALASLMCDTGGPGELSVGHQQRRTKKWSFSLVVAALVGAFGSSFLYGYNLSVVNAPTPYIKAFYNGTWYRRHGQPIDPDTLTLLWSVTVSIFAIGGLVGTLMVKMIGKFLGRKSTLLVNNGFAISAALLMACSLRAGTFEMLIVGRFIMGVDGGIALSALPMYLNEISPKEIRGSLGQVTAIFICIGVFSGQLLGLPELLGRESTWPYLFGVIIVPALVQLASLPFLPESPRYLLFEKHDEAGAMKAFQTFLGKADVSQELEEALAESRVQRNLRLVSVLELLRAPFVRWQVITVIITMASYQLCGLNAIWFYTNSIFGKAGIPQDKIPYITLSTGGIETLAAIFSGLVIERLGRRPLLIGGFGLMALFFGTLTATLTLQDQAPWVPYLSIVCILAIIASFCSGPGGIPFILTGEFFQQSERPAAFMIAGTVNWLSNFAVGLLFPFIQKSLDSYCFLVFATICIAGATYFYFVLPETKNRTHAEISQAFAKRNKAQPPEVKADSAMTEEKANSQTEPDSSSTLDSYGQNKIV

[13] = Renal toxicity in Kunming mouse assessed as effect on BUN level at 50 mg/kg,po for 14 days; assay type: organism-based; conditions: in vivo, 336 h, time 14 day
[14] = Subacute toxicity in Kunming mouse assessed as clonic convulsion at 50 mg/kg,po for 14 days; assay type: organism-based; conditions: in vivo, 336 h, time 14 day
[15] = Toxicity in Kunming mouse assessed as inflammatory infiltration in kidney at 50 mg/kg, po administered and measured after 14 days by HE staining; assay type: organism-based; conditions: in vivo, 336 h, time 14 day
[16] = Cmax in Sprague-Dawley rat at 5 mg/kg, iv and measured upto 24 hrs by LC-MS/MS analysis; assay type: ADME, organism-based; design: time < 24 hrs, dose 5 mg/kg, route iv; conditions: in vivo
[17] = Subacute toxicity in Kunming mouse assessed as anorexia at 50 mg/kg,po for 14 days; assay type: organism-based; conditions: in vivo, 336 h, time 14 day
[18] = MRT (0 to infinity) in Sprague-Dawley rat at 5 mg/kg, po and measured upto 24 hrs by LC-MS/MS analysis; assay type: ADME, organism-based; conditions: in vivo
[19] = MRT (0 to infinity) in Sprague-Dawley rat at 5 mg/kg, iv and measured upto 24 hrs by LC-MS/MS analysis; assay type: ADME, organism-based; conditions: in vivo
[20] = Toxicity in Kunming mouse assessed as appearance of normal tubular structure in kidney at 50 mg/kg, po administered and measured after 14 days by HE staining; assay type: organism-based; conditions: in vivo, 336 h, time 14 day
[21] = Toxicity in Kunming mouse assessed as inflammatory infiltration in liver at 50 mg/kg, po administered and measured after 14 days by HE staining; assay type: organism-based; conditions: in vivo, 336 h, time 14 day
[22] = Tmax in Sprague-Dawley rat at 5 mg/kg, po and measured upto 24 hrs by LC-MS/MS analysis; assay type: ADME, organism-based; conditions: in vivo
[23] = AUC(0 to infinity) in Sprague-Dawley rat at 5 mg/kg, po and measured upto 24 hrs by LC-MS/MS analysis; assay type: ADME, organism-based; design: time < 24 hrs, dose 5 mg/kg, route po; conditions: in vivo
[24] = Toxicity in Kunming mouse assessed as appearance of normal glomerulus cells in kidney at 50 mg/kg, po administered and measured after 14 days by HE staining; assay type: organism-based; conditions: in vivo, 336 h, time 14 day
[25] = Subacute toxicity in Kunming mouse assessed as lethargy at 50 mg/kg,po for 14 days; assay type: organism-based; conditions: in vivo, 336 h, time 14 day
[26] = Subacute toxicity in Kunming mouse assessed as ruffled fur at 50 mg/kg,po for 14 days; assay type: organism-based; conditions: in vivo, 336 h, time 14 day
[27] = Renal toxicity in Kunming mouse assessed as effect on creatinine level at 50 mg/kg,po for 14 days; assay type: organism-based; conditions: in vivo, 336 h, time 14 day
[28] = Half life in Sprague-Dawley rat at 5 mg/kg, iv and measured upto 24 hrs by LC-MS/MS analysis; assay type: ADME, organism-based; conditions: in vivo
[29] = Subacute toxicity in Kunming mouse assessed as body weight change at 50 mg/kg,po for 14 days; assay type: organism-based; conditions: in vivo, 336 h, time 14 day

Compound: O=C(O)CSc1nnc(Br)n1-c1ccc(C2CC2)c2ccccc12
- Activity (Mus musculus): Active

Compound: O=C(c1cc(Cl)c(O)c(Cl)c1)N1CCc2cc(Br)ccc21
- IC50 [1]: 2360 nM

Compound: Cc1ccc2c(cnn2C(=O)c2cc(Cl)c(O)c(Cl)c2)c1
- IC50 [1]: 1810 nM

Compound: O=C(c1ccc(O)cc1)n1ccc2cccnc21
- IC50 [1]: 1720 nM

Compound: Cc1cc(C(=O)n2ccc3cccnc32)cc(C)c1O
- IC50 [1]: 2700 nM

Compound: O=C(c1ccc(O)c(F)c1)n1ccc2cccnc21
- IC50 [1]: 2080 nM

Compound: O=C(c1cc(Cl)c(O)c(Cl)c1)n1ccc2cnccc21
- IC50 [1]: 2810 nM

Compound: O=C(c1ccc(O)c(Cl)c1)n1ccc2cccnc21
- IC50 [1]: 1580 nM

Compound: O=C(c1cc(Cl)c(O)c(Cl)c1)n1ccc2ccncc21
- IC50 [1]: 3220 nM

Compound: O=C(c1cc(Cl)c(O)c(Cl)c1)n1ccc2ncccc21
- IC50 [1]: 1560 nM

Compound: Cc1cc(C(=O)n2ccc3cccnc32)ccc1O
- IC50 [1]: 5830 nM

Compound: COc1cc(C(=O)n2ccc3cccnc32)ccc1O
- IC50 [1]: 2690 nM

Compound: O=C(c1ccc(O)c(Br)c1)n1ccc2cccnc21
- IC50 [1]: 3800 nM

Compound: O=C(c1cc(Br)c(O)c(Br)c1)n1ccc2cccnc21
- IC50 [1]: 2300 nM

Compound: O=C(c1cc(Cl)c(O)c(Cl)c1)n1cc(Br)c2cccnc21
- IC50 [1]: 1550 nM

Compound: O=C(c1ccc(O)c([N+](=O)[O-])c1)n1ccc2cccnc21
- IC50 [1]: 2950 nM

Compound: COc1cc(C(=O)n2ccc3cccnc32)cc(OC)c1O
- IC50 [1]: 4850 nM

Compound: O=C(c1cc(Cl)c(O)c(Cl)c1)n1ccc2c(Cl)ncnc21
- IC50 [1]: 1980 nM

Compound: O=C(c1cc(Cl)c(O)c(Cl)c1)n1ccc2cccnc21
- Activity [2]: Non-Toxic
- bioavailability [3]: 55.3%
- Cmax [4]: 6830 ng/mL
- Tmax [5]: 0.52 h
- Activity [6]: Non-Toxic
- AUC(0-inf) [7]: 63800 ng·h/mL
- Activity [8]: Non-Toxic
- IC50 [9]: 10200 nM
- Activity [10]: Non-Toxic
- half-life [11]: 4.61 h
- Activity (HepG2): Toxic
- IC50 [12]: > 20000 nM
- Activity [13]: Non-Toxic
- Activity [14]: Non-Toxic
- Activity [15]: Non-Toxic
- Cmax [16]: 18400 ng/mL
- Activity [17]: Non-Toxic
- MRT inf [18]: 7.27 h
- MRT inf [19]: 9.85 h
- IC50 [1]: 800 nM
- Activity [20]: Non-Toxic
- Activity [21]: Non-Toxic
- Tmax [22]: 0.29 h
- AUC(0-inf) [23]: 35300 ng·h/mL
- Activity [24]: Non-Toxic
- Activity [25]: Non-Toxic
- Activity [26]: Non-Toxic
- Activity [27]: Non-Toxic
- half-life [28]: 6.8 h
- Activity [29]: Non-Toxic

Compound: CC1Cc2ccccc2N1C(=O)c1cc(Cl)c(O)c(Cl)c1 (stereo unspecified)
- IC50 [1]: 1600 nM

Compound: CC(C)(Sc1ccncc1-c1ccc(C#N)c2ccccc12)C(=O)O
- IC50 [1]: 130 nM

Compound: O=C(c1cc(Cl)c(O)c(Cl)c1)n1ncc2ccccc21
- IC50 [1]: 2260 nM
